According to ChEMBL document CHEMBL6103554, “Neratinib derivative 7A induces apoptosis in colon cancer cells via the p53 pathway” (Bioorg Med Chem Lett, 2025):
Activity calls are given as the source filed them. The calls are words filed in the database; no cut-off is given here.

Key:
[1] = test system: HCT-116; experiment: Inhibition of cell adhesion in human HCT-116 cells at 5 uM; type: functional, cell-based
[2] = test system: HCT-116; experiment: Antitumor activity against human HCT116 cells xenografted in chick embryo chorioallantoic membrane assessed as reduction in angiogenesis by CAM assay; type: functional, cell-based; details: dose 5-10 µM
[3] = test system: MDA-MB-231; experiment: Cytotoxicity against human MDA-MB-231 cells assessed as inhibition rate incubated for 48 hrs by MTT; type: functional, cell-based; details: MDA-MB-231, 48 h
[4] = test system: HCT-116; experiment: Cytotoxicity against human HCT-116 cells assessed as inhibition rate incubated for 48 hrs by MTT; type: functional, cell-based; details: HCT-116, 48 h
[5] = test system: HCT-116; experiment: Induction of DNA damage in human HCT-116 cells assessed as downregulation of BCL2 level at 10 uM incubated for 24 hrs by immunoblotting analysis; type: functional, cell-based
[6] = test system: HCT-116; experiment: Inhibition of cell adhesion in human HCT-116 cells at 10 uM; type: functional, cell-based
[7] = test system: A498; experiment: Cytotoxicity against human A498 cells assessed as inhibition rate incubated for 48 hrs by MTT; type: functional, cell-based; details: A498, 48 h
[8] = test system: HeLa; experiment: Cytotoxicity against human HeLa cells assessed as inhibition rate incubated for 48 hrs by MTT; type: functional, cell-based
[9] = test system: HCT-116; experiment: Induction of DNA damage in human HCT-116 cells assessed as upregulation of BAX level at 10 uM incubated for 24 hrs by immunoblotting analysis; type: functional, cell-based
[10] = test system: HCT-116; experiment: Antitumor activity against human HCT116 cells xenografted in chick embryo chorioallantoic membrane assessed as reduction in tumor volume by CAM assay; type: functional, cell-based; details: dose 5-10 µM
[11] = test system: HCT-116; experiment: Induction of DNA damage in human HCT-116 cells assessed as upregulation of p53 level at 10 uM incubated for 24 hrs by immunoblotting analysis; type: functional, cell-based
[12] = test system: HCT-116; experiment: Activation of TNFR-mediated TNF signaling pathway in human HCT-116 cells by GSEA analysis; type: cell-based; details: filed as activator
[13] = test system: HCT-116; experiment: Induction of DNA damage in human HCT-116 cells assessed as upregulation of p21 level incubated for 24 hrs by PCR analysis; type: functional, cell-based; details: dose 2.5-10 µM
[14] = test system: HCT-116; experiment: Inhibition of cell proliferation in human HCT-116 cells at 10 uM by colony formation assay relative to control; type: functional, cell-based
[15] = test system: HCT-116; experiment: Induction of DNA damage in human HCT-116 cells assessed as upregulation of gamma-H2AX level incubated for 24 hrs by immunoblotting analysis; type: functional, cell-based; details: dose 2.5-10 µM
[16] = test system: HCT-116; experiment: Inhibition of cell invasion in human HCT-116 cells at 5 uM by Transwell assay; type: functional, cell-based
[17] = test system: HCT-116; experiment: Induction of DNA damage in human HCT-116 cells assessed as upregulation of p53 level at 10 uM incubated for 24 hrs by immunofluorescence based analysis; type: functional, cell-based
[18] = test system: HCT-116; experiment: Induction of DNA damage in human HCT-116 cells assessed as upregulation of p53 level at 5 uM incubated for 24 hrs by immunofluorescence based analysis; type: functional, cell-based
[19] = molecular target: Cellular tumor antigen p53 (Homo sapiens) (UniProt P04637); experiment: Activation of p53 signaling pathway in human HCT-116 cells by GSEA analysis; type: cell-based; details: filed as activator
Cellular tumor antigen p53 (Homo sapiens), sequence (P04637 whole entry, looked up): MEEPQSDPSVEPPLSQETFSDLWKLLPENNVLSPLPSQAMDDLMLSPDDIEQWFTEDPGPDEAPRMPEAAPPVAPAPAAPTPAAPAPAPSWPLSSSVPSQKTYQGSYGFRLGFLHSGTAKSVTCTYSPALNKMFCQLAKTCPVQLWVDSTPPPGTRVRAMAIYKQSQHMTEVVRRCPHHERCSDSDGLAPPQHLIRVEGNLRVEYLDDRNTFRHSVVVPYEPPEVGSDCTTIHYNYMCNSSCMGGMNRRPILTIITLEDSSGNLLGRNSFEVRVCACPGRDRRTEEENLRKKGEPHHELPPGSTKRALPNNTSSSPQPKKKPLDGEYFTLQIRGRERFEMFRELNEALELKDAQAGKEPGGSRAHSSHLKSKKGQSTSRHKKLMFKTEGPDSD

[20] = test system: HCT-116; experiment: Induction of DNA damage in human HCT-116 cells assessed as upregulation of gamma-H2AX level at 10 uM by immunoblotting analysis; type: functional, cell-based
[21] = test system: HCT-116; experiment: Inhibition of cell migration in human HCT-116 cells assessed as repair capacity at 5 to 10 uM measured upto 48 hrs by scratch assay; type: functional, cell-based; details: dose 5-10 µM

Row | Compound | IC50 [3] | IC50 [4] | inhibition [6] | IC50 [7] | IC50 [8] | inhibition [14] | Activity [21] | other results
1 | O=C(Nc1ccc(OCc2ccccn2)c(Cl)c1)c1ccc(CN2CCN(C(=O)C3CC3)CC2)cc1 | 17.8 µM | 7.21 µM | Active | 18.5 µM | 13.5 µM | Active; Significantly Decreased Colony Formation | Dose-dependent-effect; Stronger Inhibition | inhibition [1]: Active; Activity [2]: Dose-dependent-effect; Activity [5]: Active; Activity [9]: Active; Activity [10]: Dose-dependent-effect; Activity [11]: Active; Activity [12]: Active; Activity [13]: Dose-dependent-effect; Activity [15]: Dose-dependent-effect; inhibition [16]: Active; Activity [17]: Active; Activity [18]: Active; Activity [19]: Active; Activity [20]: Time-dependent-effect
2 | CCOc1cc2ncc(C#N)c(Nc3ccc(OCc4ccccn4)c(Cl)c3)c2cc1NC(=O)/C=C/CN(C)C [NERATINIB] | 27.7 µM | 17.3 µM | Active | 19.5 µM | 18.2 µM | Active | Active | –
